Measurements published in patent US4923857A, “3-Alkenyl-1-azabicyclo(3.2.0)hept-2-ene-2-carboxylic acid compounds” (Fujisawa Pharmaceutical Company, Ltd., priority 1988, dated 1990).

Test system: S. aureus 209P JC-1
Assay: in vitro Antimicrobial Activity, two-fold agar-plate dilution method (MIC)
Assay type: cell-based
Conditions: Staphylococcus aureus, HI-agar, 37° C., 20 hours, 10^6 viable cells per ml, read-out: MIC (minimal inhibitory concentration)
Description: in vitro Antimicrobial Activity was determined by the two-fold agar-plate dilution method as described below.
One loopful of an overnight culture of a test strain in Trypticase-soy broth (10^6 viable cells per ml) was streaked on heart infusion agar (HI-agar) containing graded concentrations of the test compound, and the minimal inhibitory concentration (MIC) was expressed in terms of […] after incubation at 37° C. for 20 hours.

- MIC: ≤ 0.025 µg/mL
Compound: C/C(=C\[C@@H]1CCCN1)C1=C(C(=O)O)N2C(=O)[C@H]([C@@H](C)O)[C@H]2C1 [Example 4-(1), (5R,6S)-6-[(1R)-1-hydroxyethyl]-7-oxo-3-[(E)-2-{(2S)-pyrrolidin-2-yl}-1-methylethenyl]-1-azabicyclo [3.2.0]hept-2-ene-2-carboxylic acid]
